Patent publication EP0406111A1, “Substituted arylamines and heteroarylamines, process for their preparation and pharmaceutical composition containing them” (SOCIETE DE CONSEILS DE […] D'APPLICATIONS SCIENTIFIQUES …, priority 1989, dated 1991)

Legend:
[1] = target: recapture de la noradrénaline (Rattus norvegicus, UniProt Q63380); experiment: Inhibition of (3H)NA reuptake in primary cultured neurons (Example 39); format: cell-based; settings: for Recapture de (³H)NA nH (nombre de Hill): cultured neurons from rat embryos
From the text: Exemple 39 : Etude de l'inhibition de la recapture de la dopamine et de la noradrénaline sur des neurones en culture.
a) Cultures primaires de neurones.
La substance noire, structure riche en cellules dopaminergiques, ou le locus coeruleus, contenant les corps cellulaires noradrénergiques, sont disséqués à partir d'embryons de rats de 14 jours, âge auquel les cellules ont terminé leur mitose. Les cellules sont dissociées mécaniquement dans un milieu sans calcium ni magnésium.
L'ensemencement est réalisé dans des puits prétraités avec de la D-polylysine, à une densité de 150 000 cellules/puits, dans 400µl de milieu de culture composé de 70% de M.E.M.; 25% de Hanks; 5% de Nu-serum décomplémenté; plus 3% de D-glucose (1/20).
Le milieu de culture est renouvelé au tiers tous les trois jours, jusqu'à 9 jours de développement "in vitro", âge auquel les cellules paraissent matures. A cet âge, la culture ne présente pas encore de cellule gliales.
b) Test d'inhibition de la recapture de la dopamine et de la noradrénaline.
On pré-incube les cellules obtenues en a) pendand 15min, à la température ambiante, avec 40µl d'un tampon constitué par le Ringer Phosphate-disodique 5 mM pH=7,6 dont la composition en concentrations finales est la suivante : NaCl 120mM; CaCl₂ 2,6 mM; MgCl₂ 1,3 mM; KCl 5mM; D-glucose 3 mM; Na₂HPO₄5mM.
On incube ensuite pendant 10min à 37°C avec le même tampon en présence de (³H)Da ou de (³H)NA à une concentration finale 10⁻⁸M et une dilution isotopique de 1/5, et de concentrations croissantes en composé à tester dans un volume final de 400µl.
On rince ensuite trois fois rapidement avec 750µl du même tampon à 4°C, ce qui correspond à une durée totale de 10 secondes.
On récupère alors les cellules dans 2 fois 500µl de NaOH 0,5N et on détermine leur radioactivité par comptage avec 4ml de scintillant et 50µl d'acide acétique glacial.
Avant les rinçages, on a prélevé un aliquote de 100µl du milieu d'incubation et on a déterminé la radioactivité libre sur celui-ci par comptage avec 5ml de scintillant. […]

[2] = system: fixation de la (³H)BTCP dans le striatum de souris; experiment: Inhibition of in vivo (3H)BTCP binding in mouse striatum (Example 40); settings: mice, compound s.c. 60 min before i.v. (3H)BTCP, sacrifice 30 min later
Experimental: Exemple 40 : Etude de l'inhibition de la fixation "in vivo" de (³H)BTCP chez la souris.
Pour cette étude, on utilise des souris Swiss mâles pesant 20 à 25g. Les souris sont réparties par groupes et alimentées avec de la nourriture standard de laboratoire et de l'eau à volonté, en réalisant des cycles de lumière artificielle de 12h consécutives à partir de 7h du matin. Les expériences sont effectuées entre 10h et 18h. Les mesures de la fixation "in vivo" de la (³H)BTCP sont effectuées comme il a été décrit par Maurice et al, 1989, de la façon suivante.
On injecte aux souris par voie sous-cutanée le composé à tester dans 100µl de solution physiologique pour les composés n^o 4 et n^o 16 et dans 100µl d'un mélange 1:1 en volume de solution physiologique et de DMSO pour le composé n^o 26. 60 min après cette injection on leur injecte dans une veine de la queue (³H)BTCP à une dose de 5µCi dans 100µl d'un mélange de solution physiologique et d'éthanol à 5%. 30min après cette injection, on sacrifie les souris. Les striata de cerveaux sont rapidement disséqués et homogénéisés avec un ultra turrax (IKA Verk) réglage maximum pendant 20s dans 80 volumes d'un tampon Na₂HPO₄, HCl 50mM, pH=7,4 à 4°C. Deux aliquots de […] sont filtrées sous pression réduite sur des filtres GF/B (Whatman) prétraités par de la polyéthylène imine à 0,5% (Aldrich). On rince ensuite les filtres deux fois avec 5ml d'un tampon NaCl 50mM, tris-HCl 10mM, pH=7,4 à 4°C. La radioactivité fixée qui reste sur les filtres, et la radioactivité totale, obtenue à partir des deux aliquots de 200µl d'homogénats sont mesurées dans des flacons de 6ml contenant 3,5ml de ACS (Amersham) avec un spectrophotomètre à scintillation liquide Excel 1410 (LKB). La fixation non spécifique est définie comme la radioactivité présente dans chaque région après prétraitement des animaux avec de la BTCP (40mg/kg dans 100µl de solution saline), injectée par voie sous-cutanée, 60min avant l'injection de (³H)BTCP. Les résultats sont exprimés sous la forme des rapports radioactivité fixée / radioactivité libre (B/F) dans lesquels le taux de (³H)BTCP libre est estimé en soustrayant la radioactivité fixée de la radioactivité totale.

Chain of recapture de la noradrénaline (Q63380 1-617): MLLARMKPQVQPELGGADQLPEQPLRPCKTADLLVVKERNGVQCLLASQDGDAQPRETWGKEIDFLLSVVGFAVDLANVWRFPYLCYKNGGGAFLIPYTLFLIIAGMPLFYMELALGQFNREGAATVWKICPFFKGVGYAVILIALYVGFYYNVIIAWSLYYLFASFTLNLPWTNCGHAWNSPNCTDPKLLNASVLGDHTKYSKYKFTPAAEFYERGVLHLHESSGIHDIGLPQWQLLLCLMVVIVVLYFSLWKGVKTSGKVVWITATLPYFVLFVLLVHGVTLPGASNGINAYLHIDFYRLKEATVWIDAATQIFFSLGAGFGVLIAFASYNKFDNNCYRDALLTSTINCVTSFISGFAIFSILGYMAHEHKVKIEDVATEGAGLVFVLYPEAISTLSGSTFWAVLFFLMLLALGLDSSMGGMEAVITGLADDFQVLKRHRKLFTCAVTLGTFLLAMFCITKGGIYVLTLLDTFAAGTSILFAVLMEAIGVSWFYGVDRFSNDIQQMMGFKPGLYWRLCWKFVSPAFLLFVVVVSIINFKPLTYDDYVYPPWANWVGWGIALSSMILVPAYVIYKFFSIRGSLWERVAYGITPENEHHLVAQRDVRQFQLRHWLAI

| SMILES | Recapture de la noradrénaline, result in words ([1]; cultured neurons) | Recapture de (³H)NA nH (nombre de Hill) [1] | ID₅₀ (mg/kg) [2] |
| --- | --- | --- | --- |
| CC1CC(C)CN(C2(c3cc4ccccc4s3)CCCCC2)C1 (stereo not drawn) [composé n^o 6, (benzo(b)thiophényl-2)-1 ((diméthyl-3,5 pipéridino)-1)-1 cyclohexane] | inhibiteur très puissant | 1,2 |  |
| c1ccc2oc(C3(N4CCCCC4)CCCCC3)cc2c1 [composé n^o 4, (benzo(b)furannyl-2)-1 (pipéridino-1)-1 cyclohexane] |  |  | 7,78 mg/kg |
| c1ccc2sc(C3(N4CCCCC4)CCCCC3)cc2c1 [BTCP, (benzo(b)thiophényl-2)-1 (pipéridino -1) cyclohexane, reference compound] |  |  | 4,98 mg/kg |
| OC1CCN(C2(c3cc4ccccc4s3)CCCCC2)CC1 [composé 26, (benzo(b)thiophényl-2)-1( (ol-4-pipéridino)-1)-1 cyclohexane] |  |  | 0,56 mg/kg |
| CCCN(CCC)C1(c2cc3ccccc3s2)CCCCC1 [composé no 3, (benzo(b)thiophényl-2)-1 (dipropylamino-1)-1 cyclohexane] |  | 0,85 |  |
